Data on 21 compounds can be found in US11655217B2, “Pyrazole MAGL inhibitors” (H. Lundbeck A/S, priority 2017, dated 2023).

One experiment addresses MAGL (Mus musculus (Mouse), UniProt O35678). The experiment is described as follows: Mouse brain proteomes from inhibitor treated mice (oral gavage, sacrificed 4 h after administration, ABPP analysis). Conditions: 5 mg/kg oral gavage.
For a further experiment, the target named is FAAH (Mus musculus (Mouse), UniProt O08914). The experiment can be described thus: Mouse brain proteomes from inhibitor treated mice (oral gavage, sacrificed 4 h after administration, ABPP analysis), FAAH. Particulars: 5 mg/kg oral gavage.
FAAH, sequence (O08914 whole entry): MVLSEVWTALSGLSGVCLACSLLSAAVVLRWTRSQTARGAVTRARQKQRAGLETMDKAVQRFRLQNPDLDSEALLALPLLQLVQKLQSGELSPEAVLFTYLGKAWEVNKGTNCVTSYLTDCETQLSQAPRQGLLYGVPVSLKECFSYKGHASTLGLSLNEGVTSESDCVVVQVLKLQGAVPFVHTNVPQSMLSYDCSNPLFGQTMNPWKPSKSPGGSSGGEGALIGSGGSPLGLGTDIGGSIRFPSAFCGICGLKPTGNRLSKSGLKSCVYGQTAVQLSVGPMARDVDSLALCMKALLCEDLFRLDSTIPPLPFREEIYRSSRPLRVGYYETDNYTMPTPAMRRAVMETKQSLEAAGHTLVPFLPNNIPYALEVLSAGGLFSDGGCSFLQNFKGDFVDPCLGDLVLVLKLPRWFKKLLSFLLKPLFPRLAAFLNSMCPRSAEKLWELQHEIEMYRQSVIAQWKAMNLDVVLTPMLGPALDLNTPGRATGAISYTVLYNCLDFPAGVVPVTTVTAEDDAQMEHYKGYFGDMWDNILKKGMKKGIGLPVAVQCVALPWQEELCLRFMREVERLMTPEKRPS

Molecules are shown by their SMILES.

MAGL, sequence (O35678 whole entry): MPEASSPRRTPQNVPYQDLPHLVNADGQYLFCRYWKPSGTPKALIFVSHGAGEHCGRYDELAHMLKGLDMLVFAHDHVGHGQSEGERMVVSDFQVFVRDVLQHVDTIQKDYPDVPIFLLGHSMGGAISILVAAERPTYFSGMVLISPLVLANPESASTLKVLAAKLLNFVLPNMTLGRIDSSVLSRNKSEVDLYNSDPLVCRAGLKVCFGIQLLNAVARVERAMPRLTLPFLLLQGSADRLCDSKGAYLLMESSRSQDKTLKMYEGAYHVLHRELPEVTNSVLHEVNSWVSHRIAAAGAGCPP
Protocol for FAAH: (§1) Preparation of Mouse Brain Proteomes from Inhibitor Treated Mice.
(§2) Inhibitors were administered to wild-type C57Bl/6J by oral gavage in a vehicle of polyethylene glycol.
Protocol for MAGL: as §1, §2

Turning to `O=C(O)c1ccn(C(=O)N2CCN(Cc3cccc(C(F)(F)F)c3N3CCCC3)CC2)n1` [Example 90, 1-(4-(2-(pyrrolidin-1-yl)-3-(trifluoromethyl)benzyl)piperazine-1-carbonyl)-1H-pyrazole-3-carboxylic acid], the “MAGL % inh. 5 mg/kg (mouse)” value at MAGL was “D (% inhibition is greater than or equal to 0% and less than 25%)”. Besides, the “FAAH % inh. 5 mg/kg (mouse)” value at FAAH is “D (% inhibition is greater than or equal to 0% and less than 25%)”.

As to `O=C(O)c1ccn(C(=O)N2CCN(Cc3cccc(Oc4ccc(Cl)cc4)c3)CC2)n1` [Example 98, 1-(4-(3-(4-chlorophenoxy)benzyl)piperazine-1-carbonyl)-1H-pyrazole-3-carboxylic acid], at MAGL, the “MAGL % inh. 5 mg/kg (mouse)” value is “D (% inhibition is greater than or equal to 0% and less than 25%)”. Further, the “FAAH % inh. 5 mg/kg (mouse)” value at FAAH was “D (% inhibition is greater than or equal to 0% and less than 25%)”.

Consider `O=C(O)c1ccn(C(=O)N2CCC(Oc3ccc(Cl)c(N4CCCC4)c3)CC2)n1` [Example 121, 1-(4-(4-chloro-3-(pyrrolidin-1-yl)phenoxy)piperidine-1-carbonyl)-1H-pyrazole-3-carboxylic acid], for which the “MAGL % inh. 5 mg/kg (mouse)” value on MAGL was “D (% inhibition is greater than or equal to 0% and less than 25%)”. In addition, the “FAAH % inh. 5 mg/kg (mouse)” value at FAAH was “D (% inhibition is greater than or equal to 0% and less than 25%)”.

Consider `O=C(O)c1ccn(C(=O)N2CCN(Cc3ccc(C(F)(F)F)cc3N3CCN4CCC[C@@H]4C3)CC2)n1` [Example 48, (R)-1-(4-(2-(hexahydropyrrolo-[1,2-a]pyrazin-2(1H)-yl)-4-(trifluoromethyl)benzyl)piperazine-1-carbonyl)-1H-pyrazole-3-carboxylic acid], for which, at MAGL, the “MAGL % inh. 5 mg/kg (mouse)” value was “D (% inhibition is greater than or equal to 0% and less than 25%)”. In addition, at FAAH, the “FAAH % inh. 5 mg/kg (mouse)” value is “D (% inhibition is greater than or equal to 0% and less than 25%)”.

Regarding `O=C(O)c1ccn(C(=O)N2CC3CN(Cc4cccc(Oc5ccc(Cl)cc5)c4)CC3C2)n1` (stereo not drawn) [Example 116, 1-(5-(3-(4-chlorophenoxy)benzyl)octahydro-pyrrolo[3,4-c]pyrrole-2-carbonyl)-1H-pyrazole-3-carboxylic acid], on MAGL, the “MAGL % inh. 5 mg/kg (mouse)” value was “D (% inhibition is greater than or equal to 0% and less than 25%)”. Further, the “FAAH % inh. 5 mg/kg (mouse)” value at FAAH is “D (% inhibition is greater than or equal to 0% and less than 25%)”.

With `O=C(O)c1ccn(C(=O)N2CCN(Cc3ccc(Cl)cc3N3C4CCC3COC4)CC2)n1` [Example 105, 1-(4-(2-(3-oxa-8-azabicyclo[3.2.1]octan-8-yl)-4-chlorobenzyl)piper-azine-1-carbonyl)-1H-pyrazole-3-carboxylic acid], the “MAGL % inh. 5 mg/kg (mouse)” value at MAGL was “D (% inhibition is greater than or equal to 0% and less than 25%)”. Further, the “FAAH % inh. 5 mg/kg (mouse)” value on FAAH was “D (% inhibition is greater than or equal to 0% and less than 25%)”.

For the compound `CC(=O)NC1CCN(c2cc(C(F)(F)F)ccc2CN2CCN(C(=O)n3ccc(C(=O)O)n3)CC2)CC1` [Example 119, 1-(4-(2-(4-acetamidopiperidin-1-yl)-4-(trifluoromethyl)benzyl)piperazine-1-carbonyl)-1H-pyrazole-3-carboxylic acid], the “MAGL % inh. 5 mg/kg (mouse)” value on MAGL is “D (% inhibition is greater than or equal to 0% and less than 25%)”. The “FAAH % inh. 5 mg/kg (mouse)” value on FAAH is “D (% inhibition is greater than or equal to 0% and less than 25%)”.

Regarding `O=C(O)c1ccn(C(=O)N2C[C@H]3C[C@H](OCc4cccc(C(F)(F)F)c4)C[C@H]3C2)n1` [Example 157, 1-(trans-5-((3-(trifluoromethyl)benzyl)oxy)octa-hydrocyclopenta[c]pyrrole-2-carbonyl)-1H-pyrazole-3-carboxylic acid], the “MAGL % inh. 5 mg/kg (mouse)” value at MAGL was “D (% inhibition is greater than or equal to 0% and less than 25%)”. The “FAAH % inh. 5 mg/kg (mouse)” value on FAAH was “D (% inhibition is greater than or equal to 0% and less than 25%)”.

On to `O=C(O)c1ccn(C(=O)N2CCN(Cc3ccc(C(F)(F)F)c(-c4nccs4)c3)CC2)n1` [Example 8, 1-(4-(3-(Thiazol-2-yl)-4-(trifluoromethyl)benzyl)piperazine-1-carbonyl)-1H-pyrazole-3-carboxylic Acid], for which, on MAGL, the “MAGL % inh. 5 mg/kg (mouse)” value was “D (% inhibition is greater than or equal to 0% and less than 25%)”. The “FAAH % inh. 5 mg/kg (mouse)” value at FAAH was “D (% inhibition is greater than or equal to 0% and less than 25%)”.

On to `Cc1cn(C(=O)N2CCC3(CCN(Cc4cc(Cl)ccc4C(F)(F)F)C3)CC2)nc1C(=O)O` [Example 130, 1-(2-(5-chloro-2-(trifluoromethyl)benzyl)-2,8-diazaspiro[4.5]decane-8-carbonyl)-4-methyl-1H-pyrazole-3-carboxylic acid], for which the “MAGL % inh. 5 mg/kg (mouse)” value on MAGL is “D (% inhibition is greater than or equal to 0% and less than 25%)”. Besides, the “FAAH % inh. 5 mg/kg (mouse)” value at FAAH is “D (% inhibition is greater than or equal to 0% and less than 25%)”.

On to `O=C(O)c1ccn(C(=O)N2CCN(Cc3ccc(C(F)(F)F)cc3N3C4CCC3COC4)CC2)n1` [Example 118, 1-(4-(2-(3-oxa-8-azabicyclo[3.2.1]octan-8-yl)-4-(trifluoromethyl)benzyl)piperazine-1-carbonyl)-1H-pyrazole-3-carboxylic acid], for which, on MAGL, the “MAGL % inh. 5 mg/kg (mouse)” value was “D (% inhibition is greater than or equal to 0% and less than 25%)”. Moreover, at FAAH, the “FAAH % inh. 5 mg/kg (mouse)” value was “D (% inhibition is greater than or equal to 0% and less than 25%)”.

On to `O=C(O)c1ccn(C(=O)N2CCC(Oc3ccc(Cl)cc3N3CCCC3)CC2)n1` [Example 11, 1-(4-(4-Chloro-2-(pyrrolidin-1-yl)phenoxy)piperidine-1-carbonyl)-1H-pyrazole-3-carboxylic Acid], for which the “MAGL % inh. 5 mg/kg (mouse)” value on MAGL was “D (% inhibition is greater than or equal to 0% and less than 25%)”. The “FAAH % inh. 5 mg/kg (mouse)” value on FAAH is “D (% inhibition is greater than or equal to 0% and less than 25%)”.

In the case of `CN(Cc1ccc(C(F)(F)F)cc1-c1nccs1)C1(C)CCN(C(=O)n2ccc(C(=O)O)n2)CC1` [Example 10, 1-(4-methyl-4-(methyl(2-(thiazol-2-yl)-4-(trifluoromethyl)benzyl)amino)piperidine-1-carbonyl)-1H-pyrazole-3-carboxylic Acid], the “MAGL % inh. 5 mg/kg (mouse)” value on MAGL is “D (% inhibition is greater than or equal to 0% and less than 25%)”. For the same compound, at FAAH, the “FAAH % inh. 5 mg/kg (mouse)” value was “D (% inhibition is greater than or equal to 0% and less than 25%)”.

Turning to `O=C(O)c1ccn(C(=O)N2CCN(Cc3ccc(C(F)(F)F)cc3N3CCCC3)CC2)n1` [Example 83, 1-(4-(2-(pyrrolidin-1-yl)-4-(trifluoromethyl)benzyl)piperazine-1-carbonyl)-1H-pyrazole-3-carboxylic acid], the “MAGL % inh. 5 mg/kg (mouse)” value at MAGL was “D (% inhibition is greater than or equal to 0% and less than 25%)”. At FAAH, the “FAAH % inh. 5 mg/kg (mouse)” value is “D (% inhibition is greater than or equal to 0% and less than 25%)”.

For the compound `O=C(O)c1ccn(C(=O)N2CCN(Cc3ccc(C(F)(F)F)cc3N3CCOCC3)CC2)n1` [Example 3, 1-(4-(2-Morpholino-4-(trifluoromethyl)benzyl)piperazine-1-carbonyl)-1H-pyrazole-3-carboxylic Acid], the “MAGL % inh. 5 mg/kg (mouse)” value at MAGL was “D (% inhibition is greater than or equal to 0% and less than 25%)”. In addition, at FAAH, the “FAAH % inh. 5 mg/kg (mouse)” value was “D (% inhibition is greater than or equal to 0% and less than 25%)”.

Take `C[C@@H]1CCCN1c1cc(C(F)(F)F)ccc1CN1CCN(C(=O)n2ccc(C(=O)O)n2)CC1` [Example 95, (R)-1-(4-(2-(2-methylpyrrolidin-1-yl)-4-(trifluoromethyl)benzyl)piperazine-1-carbonyl)-1H-pyrazole-3-carboxylic acid]: the “MAGL % inh. 5 mg/kg (mouse)” value at MAGL was “D (% inhibition is greater than or equal to 0% and less than 25%)”. For the same compound, the “FAAH % inh. 5 mg/kg (mouse)” value on FAAH was “D (% inhibition is greater than or equal to 0% and less than 25%)”.

`CC1CCC(C)N1c1cc(C(F)(F)F)ccc1CN1CCN(C(=O)n2ccc(C(=O)O)n2)CC1` (stereo not drawn) [Example 114, 1-(4-(2-(2,5-dimethylpyrrolidin-1-yl)-4-(trifluoromethyl)benzyl)piperazine-1-carbonyl)-1H-pyrazole-3-carboxylic acid]: on MAGL, the “MAGL % inh. 5 mg/kg (mouse)” value is “D (% inhibition is greater than or equal to 0% and less than 25%)”. For the same compound, the “FAAH % inh. 5 mg/kg (mouse)” value on FAAH is “D (% inhibition is greater than or equal to 0% and less than 25%)”.

As to `NC(=O)c1ccn(C(=O)N2CCN(Cc3cccc(C(F)(F)F)c3N3CCOCC3)CC2)n1` [Example 199, 1-(4-(2-morpholino-3-(trifluoromethyl)benzyl)piperazine-1-carbonyl)-1H-pyrazole-3-carboxamide], the “MAGL % inh. 5 mg/kg (mouse)” value at MAGL is listed as “A (% inhibition is greater than or equal to 75%)”. Moreover, the “FAAH % inh. 5 mg/kg (mouse)” value at FAAH is “D (% inhibition is greater than or equal to 0% and less than 25%)”.

For the compound `O=C(O)c1ccn(C(=O)N2CC3CN(Cc4cc(Cl)cc(C(F)(F)F)c4)CC3C2)n1` (stereo not drawn) [Example 124, 1-(5-(3-chloro-5-(trifluoromethyl)benzyl)octahydro-pyrrolo[3,4-c]pyrrole-2-carbonyl)-1H-pyrazole-3-carboxylic acid], the “MAGL % inh. 5 mg/kg (mouse)” value on MAGL is “D (% inhibition is greater than or equal to 0% and less than 25%)”. The “FAAH % inh. 5 mg/kg (mouse)” value on FAAH is “C (% inhibition is greater than or equal to 25% and less than 50%)”.

With `O=C(O)c1ccn(C(=O)N2CCC3(CCCN3Cc3cc(Cl)cc(C(F)(F)F)c3)CC2)n1` [Example 86, 1-(1-(3-chloro-5-(trifluoromethyl)benzyl)-1,8-diazaspiro[4.5]decane-8-carbonyl)-1H-pyrazole-3-carboxylic acid], the “MAGL % inh. 5 mg/kg (mouse)” value at MAGL is “D (% inhibition is greater than or equal to 0% and less than 25%)”. For the same compound, the “FAAH % inh. 5 mg/kg (mouse)” value at FAAH is “D (% inhibition is greater than or equal to 0% and less than 25%)”.

As to `O=C(O)c1ccn(C(=O)N2CCC3(CCN(Cc4cccc(Oc5ccc(Cl)cc5)c4)C3)CC2)n1` [Example 210, 1-(2-(3-(4-chlorophenoxy)benzyl)-2,8-diazaspiro[4.5]decane-8-carbonyl)-1H-pyrazole-3-carboxylic acid], the “MAGL % inh. 5 mg/kg (mouse)” value on MAGL is “D (% inhibition is greater than or equal to 0% and less than 25%)”. Also, the “FAAH % inh. 5 mg/kg (mouse)” value at FAAH was “D (% inhibition is greater than or equal to 0% and less than 25%)”.
